# pEC50: −log10 of the molar value.
# Assays:
# [1] = target: T1, GPR174 (Homo sapiens, UniProt Q9BXC1); assay: CRA (EC50) of GPR174 inhibitor compounds, tested as described in US 20200276190; assay type: cell-based; details: multiple values = separate experiments
# Procedure: (§1) Where present, multiple EC50 values correspond to values obtained in separate experiments. […] The activity of the compounds was tested as described in US 20200276190, the disclosure of which is incorporated herein by reference.
# [2] = tested on: human CD8 T cells; assay: Example 3: human CD8 T cell 10-day expansion with IL-7+IL-15 and inhibitors, IL-2 after restimulation; assay type: cell-based; details: 300 nM Compound #10, 500 nM Compound #49, 100 nM ZM-241385, 18 hours restimulation
# Procedure: (§2) Purified human CD8 T cells were cultured in 24-well plates with the following conditions per well: • 2 mL X-VIVO™ 15 media (Lonza) • 1 million human CD8 T cells • 2 million Human T-Activator CD3/CD28 Dynabeads® (ThermoFisher) • 10 ng/mL human IL-7 (R&D Systems) • 10 ng/mL human IL-15 (R&D Systems)
# and the following individual conditions for FIG. 4: • 1. DMSO vehicle control • 2. […] 300 nM GPR174 inhibitor Compound #10 • 4.
# On days 4 and 7 (FIG. 4) or days 3, 5, and 7 (FIG. 5), cultures were washed and seeded at 0.5 cells million per well with the same GPR174 and A2A inhibitor conditions, and with 10 ng/mL IL-7 and 10 ng/mL IL-15.
# After 18 hours of culture, supernatants were harvested and analyzed for IL-2 (MesoScale Discovery).
# [3] = target: T1, GPR174; assay: Human GPR174 CRE activity / Gs signaling; assay type: cell-based
# Procedure: as §1
# [4] = tested on: human CD8 T cells; assay: Example 4: human CD8 T cell expansion with GPR174, A2A, PKA or EPAC inhibitors, IL-2 after restimulation; assay type: cell-based; details: 300 nM Compound #10, 100 nM ZM-241385, 500 μM Rp-8-Br-cAMPS, 5 μM ESI-09; 5.5 hours restimulation
# Procedure: as §2, with “(Lonza) • 0.4 million human” for “(Lonza) • 1 million human”, “T cells (Donor A) • 2” for “T cells • 2”
# and the following individual conditions, ±300 nM Compound #10: • 1. DMSO vehicle control • 2. […] 500 μM Rp-8-Br-cAMPS • 4. 5 μM ESI-09
# On days 3, 5, and 7, cultures were washed and seeded at 0.5 cells million per well with the same small molecule inhibitor conditions, and with IL-7 and IL-15.
# After 5.5 hours of culture, supernatants were harvested and analyzed for IL-2 content (MesoScale Discovery).
# [5] = tested on: human CD8 T cells; assay: Example 5: human CD8 T cell expansion with cAMP pathway and p38 inhibitors, IL-2 after restimulation; assay type: cell-based; details: 500 μM Rp-8-Br-cAMPS, 0.5 μM doramapimod; for IL-2 production following restimulation, fold above vehicle control (FIG. 8): 10 μM HJC-0197, 5 μM ESI-09
# Procedure: (§3) DMSO vehicle control • 2. […] 500 μM Rp-8-Br-cAMPS • 4. […] 0.5 μM doramapimod • 6. Media control
# (§4) or the following individual conditions for the experiment shown in FIG. 8, each ±0.5 μM doramapimod: • 1. DMSO vehicle control • 2. 500 μM Rp-8-Br-cAMPS • 3. […] 5 μM ESI-09
# (§5) On days 3, 5, and 7, cultures were washed and seeded at 0.5 cells million per well with the same small molecule inhibitor conditions, and with IL-7 and IL-15. On day 10, cells were washed twice (12 mL media each), and restimulated in quadruplicate in 96-well round-bottom plates with the following conditions: • 0.1 mL X-VIVO™ 15 media (Lonza) • 0.05 million cells from each condition • 0.1 million Human T-Activator CD3/CD28 Dynabeads® (ThermoFisher)
# (§6) After overnight culture, supernatants were harvested and analyzed for IL-2 content (MesoScale Discovery).
# [6] = tested on: human CD8 T cells; assay: Example 5: T cell number increase during 10-day expansion; assay type: cell-based
# Procedure: as §3, §4, §5
# [7] = tested on: OT-I TCR transgenic CD8 T cells; assay: Example 6: OT-I CD8 T cell expansion with PKA and p38 inhibitors, IL-2 after restimulation with EG7 cells; assay type: cell-based, mouse; details: 0.2 μM doramapimod, 500 μM Rp-8-Br-cAMPS
# Procedure: (§7) and the following individual conditions: • 1. DMSO vehicle control • 2. 0.2 μM doramapimod • 3. 500 μM Rp-8-Br-cAMPS • 4. 0.2 μM doramapimod+500 μM Rp-8-Br-cAMPS
# On day 8, cells were immunophenotyped with the following antibodies: anti-CD8 BV570, anti-CD62L eFluor450, anti-TCF1/TCF7 PE, anti-CD39 PerCP-eFluor710, anti-CD69 BV605, anti-PD-1 BV711, anti-CTLA-4 APC, and LIVE/DEAD™ Fixable Green Dead Cell Stain.
# as §6
# [8] = tested on: OT-I TCR transgenic CD8 T cells; assay: Example 6: immunophenotyping of OT-I T cells on day 8; assay type: cell-based, mouse; details: 8 days of culture
# Procedure: as §7
# On days 2, 4, 6, and 8, cells were counted, washed, and reseeded at 0.5 million per well in 2 mL media with the same 4 doramapimod/Rp-8-Br-cAMPS conditions and with recombinant mouse IL-2 and IL-7 (5 ng/mL each). On day 8, cells were immunophenotyped with the following antibodies: anti-CD8 BV570, anti-CD62L eFluor450, anti-TCF1/TCF7 PE, anti-CD39 PerCP-eFluor710, anti-CD69 BV605, anti-PD-1 BV711, anti-CTLA-4 APC, and LIVE/DEAD™ Fixable Green Dead Cell Stain.
# [9] = tested on: EG7 tumors; assay: Example 7: adoptive transfer of inhibitor-precultured OT-1 T cells into EG7 tumor-bearing mice; assay type: in vivo, mouse
# Procedure: as §7
# On day 6 cells were seeded in 6-well plates with […] per well, and on day 8 cells were seeded in T75 flasks in 30 mL media to obtain enough cells to transfer into EG7 tumor-bearing mice.
# C57BL/6 female mice were implanted with 6 million EG7 tumor cells subcutaneously on day 4 of the OT-1 T cell expansion. On day 6 of tumor growth (day 10 of OT-1 T cell expansion) OT-1 T cells were washed and injected retro-orbitally into tumor bearing mice that had been sorted into 4 groups with equal tumor volume distributions (n=8). Via retroorbital injection, mice received 2 million OT1 T cells of each of the 4 culture conditions. Tumor volume (mm^3) was calculated as 0.5×(length×width^2), where length represents the largest tumor diameter and width represents the perpendicular tumor diameter. Mice were euthanized when the sum of the two measurements exceeded 30 mm.
# [10] = tested on: OT-I TCR transgenic CD8 T cells; assay: Example 8: OT-I CD8 T cell 9-day expansion with PKA, p38, PI3Kδ inhibitors, IL-2 after restimulation with EG7 cells; assay type: cell-based, mouse
# Procedure: DMSO vehicle control • 2. 0.5 μM doramapimod • 3. 500 μM Rp-8-Br-cAMPS • 4. 0.5 μM doramapimod+500 μM Rp-8-Br-cAMPS • 5. 1 μM idelalisib • 6. 1 μM idelalisib+0.5 μM doramapimod • 7. 1 μM idelalisib+500 μM Rp-8-Br-cAMPS • 8. 1 μM idelalisib+0.5 μM doramapimod+500 μM Rp-8-Br-cAMPS
# On days 2, 4, 6, and 8, cells were counted, washed and reseeded at 0.5 million per well in 2 mL media with the same 8 conditions and with recombinant mouse IL-2 and IL-7 (5 ng/mL each). […] Cells were also washed three times (12 mL media each), and restimulated in quintuplicate in 96-well round-bottom plates with the following conditions: • 0.1 mL RP10 media • 0.05 million OT-I T cells from each condition • 0.05 million EG7 cells
# as §6
# [11] = tested on: OT-I TCR transgenic CD8 T cells; assay: Example 9: OT-I CD8 T cell 10-day expansion, immunophenotyping and IL-2 capacity; assay type: cell-based, mouse
# [12] = Idelalisib (agent together with 1 μM idelalisib)
# T1 sequence (Q9BXC1 whole entry): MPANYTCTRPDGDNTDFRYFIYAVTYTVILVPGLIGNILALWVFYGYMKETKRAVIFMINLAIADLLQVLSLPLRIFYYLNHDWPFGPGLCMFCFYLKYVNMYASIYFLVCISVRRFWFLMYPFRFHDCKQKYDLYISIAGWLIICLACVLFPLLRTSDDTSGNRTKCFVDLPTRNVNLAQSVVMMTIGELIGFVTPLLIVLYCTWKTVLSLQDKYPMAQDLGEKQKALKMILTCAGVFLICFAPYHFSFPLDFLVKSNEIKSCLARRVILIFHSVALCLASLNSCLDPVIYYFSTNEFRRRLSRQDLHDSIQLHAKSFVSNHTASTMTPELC
smiles,measurement,setting,value
CCOc1ccc(C2C3=C(CCCC3=O)NC3=C2C(=O)c2ccccc23)cc1 (stereo not shown) [Compound 23],pEC50,[1],5.54
CC(C)Oc1ccc(C2C3=C(CCCC3=O)NC3=C2C(=O)c2ccccc23)cc1 (stereo not shown) [Compound 49],"IL-2 production following restimulation, fold vs vehicle (FIG. 5)",[2],1.9 fold
O=C(N/N=C/c1cc(Cl)ccc1O)c1ccncc1 [Compound 57],Human GPR174 CRE Activity (type of modulation),[3],Antagonist or allosteric modulator
Cc1cc(C(=O)N/N=C/c2cc(Br)ccc2O)c(C)o1 [Compound 58],Human GPR174 CRE Activity (type of modulation),[3],Antagonist or allosteric modulator
S=C(NCc1ccco1)Nc1ccc(I)cc1 [Compound 59],Human GPR174 CRE Activity (type of modulation),[3],NM (“NM” refers to “non-modulator.”)
CC(C)(C)c1cc(C(=O)/C(C#N)=N/Nc2cccc(Cl)c2)no1 [ESI-09],"IL-2 production following restimulation, fold increase vs vehicle (FIG. 6)",[4],no impact on IL-2 production
same,"IL-2 production following restimulation, fold above vehicle control (FIG. 8)",[5],absent or negligible
same,T cell growth during the 10-day culture relative to vehicle-treated cells (FIG. 8),[6],attenuated T cell expansion
Cc1ccc(C)c(CSc2nc(C3CCCC3)c(C#N)c(=O)[nH]2)c1 [HJC-0197],"IL-2 production following restimulation, fold above vehicle control (FIG. 8)",[5],absent or negligible
Cc1ccc(-n2nc(C(C)(C)C)cc2NC(=O)Nc2ccc(OCCN3CCOCC3)c3ccccc23)cc1 [doramapimod],"IL-2 production following restimulation, fold above vehicle control (FIG. 8)",[5],1.8 fold
same,"IL-2 production following restimulation, fold vs vehicle (FIG. 7)","[5]; GPR174+A2A inhibitors, overnight restimulation",3.2 fold
same,T cell growth during the 10-day culture relative to vehicle-treated cells (FIG. 8),[6],very little effect on cell growth
same,fold-increase in T cell number during the 10-day expansion (FIG. 7),[6]; vehicle and media controls approximately 50-fold,approximately 50 fold
same,"IL-2 production from 8-day OT-I cultures, fold vs vehicle control",[7]; day 8 restimulation with EG7 cells,4.9 fold
same,"IL-2 production from 10-day OT-I cultures, fold over vehicle control",[7]; day 10 restimulation with EG7 cells,6.8 fold
same,increase in cells expressing both CD62L and TCF1/TCF7 relative to vehicle control,[8],smaller increases
same,percentage of OT-I T cells expressing both CD39 and CD69,[8]; vehicle 22%,smaller reductions
same,tumor growth / tumor volume after transfer of precultured OT-1 T cells,"[9]; 2 million OT-1 T cells expanded 10 days with 0.2 μM doramapimod and/or 500 μM Rp-8-Br-cAMPS, retro-orbital, relative to vehicle control cells",significantly halted and delayed tumor growth
same,survival of tumor-bearing mice,"[9]; OT-1 T cells precultured with inhibitor(s), relative to vehicle group",intermediate survival times
same,Fold-change in IL-2 production relative to Vehicle control,[10]; [12],65.0
same,Fold-change in IL-2 production relative to Vehicle control,"[10]; column Vehicle (without idelalisib), 0.5 μM doramapimod, 500 μM Rp-8-Br-cAMPS",2.2
CC[C@H](Nc1ncnc2[nH]cnc12)c1nc2cccc(F)c2c(=O)n1-c1ccccc1 [idelalisib],Fold-change in IL-2 production relative to Vehicle control,[10]; [12],24.0
same,TCF-1 positive cells,[11]; Vehicle 10%,27%
same,CTLA-4 positive cells,[11]; Vehicle 41%,28%
same,PD-1 positive cells,[11]; Vehicle 75%,75%
same,CD39 positive cells,[11]; Vehicle 87%,63%
same,TIM-3 positive cells,[11]; Vehicle 88%,60%
same,CD69 positive cells,[11]; Vehicle 95%,74%

# Reference: patent publication US20230285556A1, “METHODS AND COMPOSITIONS FOR TREATING CANCER” (Omeros Corporation, priority 2021, published 2023)
